Results reported in PubChem BioAssay AID248 (DTP/NCI, 2004).
“And” between values parts separate entries of the source, which are not always exact repeats. Equal entries are not always repeated. Inconclusive results and toxic doses are left out.

System: L1210 leukemia ip in BDF1 mice, survival T/C
Assay: NCI In Vivo Anticancer Drug Screen. Data for tumor model L1210 Leukemia (intraperitoneal) in B6D2F1 (BDF1) mice
Details: higher = longer survival
Method in brief: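 Transplantable tumor model; survival measured in treated vs vehicle control mice. Value = treated/control.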

O=NN(CCCl)C(=O)NC1CCCCC1
T/C (endpoint: mean survival time, dose: 9.0 mg/kg/injection, schedule: Q01DX003 (ip), vehicle: carboxymethylcellulose (CMC)): 154 % of control
T/C (endpoint: mean survival time, dose: 9.3 mg/kg/injection, schedule: Q## X004 (ip), vehicle: carboxymethylcellulose (CMC)): 112 % of control
T/C (endpoint: mean survival time, dose: 9.37 mg/kg/injection, schedule: Q01DX001 (ip), vehicle: saline): 102 % of control
T/C (endpoint: mean survival time, dose: 10.0 mg/kg/injection, schedule: Q01DX001 (ip), vehicle: carboxymethylcellulose (CMC)): 116 % of control
T/C (endpoint: mean survival time, dose: 10.0 mg/kg/injection, schedule: Q01DX001 (iv), vehicle: clinical formulation): 160 % of control
T/C (endpoint: mean survival time, dose: 10.0 mg/kg/injection, schedule: Q## X032 (ip), vehicle: carboxymethylcellulose (CMC)): 122 % of control
T/C (endpoint: mean survival time, dose: 12.5 mg/kg/injection, schedule: Q01DX009 (ip), vehicle: Klucel (hydroxypropylcellulose) (HPC)): 172 % of control
T/C (endpoint: mean survival time, dose: 12.5 mg/kg/injection, schedule: Q01DX Z (ip), vehicle: carboxymethylcellulose (CMC)): 156 % of control
T/C (endpoint: mean survival time, dose: 12.5 mg/kg/injection, schedule: Q03HX024 (ip), vehicle: carboxymethylcellulose (CMC)): 154 % of control
T/C (endpoint: mean survival time, dose: 15.0 mg/kg/injection, schedule: Q01DX001 (iv), vehicle: Klucel (hydroxypropylcellulose) (HPC)): 152 % of control
T/C (endpoint: mean survival time, dose: 16.0 mg/kg/injection, schedule: Q01DX009 (ip), vehicle: saline with Tween-80): 161 % of control
T/C (endpoint: mean survival time, dose: 16.0 mg/kg/injection, schedule: Q01DX Z (ip), vehicle: carboxymethylcellulose (CMC)): 158 % of control
T/C (endpoint: mean survival time, dose: 16.0 mg/kg/injection, schedule: Q03HX003 (oral), vehicle: saline): 161 % of control
T/C (endpoint: mean survival time, dose: 18.0 mg/kg/injection, schedule: Q01DX001 (ip), vehicle: carboxymethylcellulose (CMC)): 159 % of control
T/C (endpoint: mean survival time, dose: 18.5 mg/kg/injection, schedule: Q01DX001 (ip), vehicle: carboxymethylcellulose (CMC)): 153 % of control
T/C (endpoint: mean survival time, dose: 18.75 mg/kg/injection, schedule: Q01DX001 (ip), vehicle: saline): 109 % of control
T/C (endpoint: mean survival time, dose: 20.0 mg/kg/injection, schedule: Q01DX001 (ip), vehicle: carboxymethylcellulose (CMC)): 160 % of control
T/C (endpoint: mean survival time, dose: 20.0 mg/kg/injection, schedule: Q04DX004 (ip), vehicle: Klucel (hydroxypropylcellulose) (HPC)): 162 % of control
T/C (endpoint: mean survival time, dose: 22.0 mg/kg/injection, schedule: Q01DX001 (ip), vehicle: carboxymethylcellulose (CMC)): 156 % of control
T/C (endpoint: mean survival time, dose: 22.0 mg/kg/injection, schedule: Q01DX001 (iv), vehicle: saline): 165 % of control
T/C (endpoint: mean survival time, dose: 25.0 mg/kg/injection, schedule: Q03HX008 (ip), vehicle: carboxymethylcellulose (CMC)): 112 % of control
T/C (endpoint: mean survival time, dose: 30.0 mg/kg/injection, schedule: Q01DX001 (ip), vehicle: saline): 156 % of control
T/C (endpoint: mean survival time, dose: 32.0 mg/kg/injection, schedule: Q01DX005 (oral), vehicle: saline): 121 % of control
T/C (endpoint: mean survival time, dose: 50.0 mg/kg/injection, schedule: Q01DX Z (ip), vehicle: carboxymethylcellulose (CMC)): 118 % of control
T/C (endpoint: mean survival time, dose: 50.0 mg/kg/injection, schedule: Q07DX Z (ip), vehicle: carboxymethylcellulose (CMC)): 158 % of control
T/C (endpoint: mean survival time, dose: 50.0 mg/kg/injection, schedule: Q## X004 (ip), vehicle: carboxymethylcellulose (CMC)): 160 % of control
T/C (endpoint: mean survival time, dose: 50.0 mg/kg/injection, schedule: Q## X015 (ip), vehicle: carboxymethylcellulose (CMC)): 171 % of control
T/C (endpoint: mean survival time, dose: 62.0 mg/kg/injection, schedule: Q01DX Z (ip), vehicle: carboxymethylcellulose (CMC)): 92 % of control
T/C (endpoint: mean survival time, dose: 75.0 mg/kg/injection, schedule: Q## X008 (ip), vehicle: carboxymethylcellulose (CMC)): 163 % of control
T/C (endpoint: mean survival time, dose: 97.0 mg/kg/injection, schedule: Q01DX001 (oral), vehicle: carboxymethylcellulose (CMC)): 95 % of control
T/C (endpoint: mean survival time, dose: 100.0 mg/kg/injection, schedule: Q01DX001 (ip), vehicle: carboxymethylcellulose (CMC)): 164 % of control
T/C (endpoint: mean survival time, dose: 100.0 mg/kg/injection, schedule: Q01DX001 (ip), vehicle: saline): 104 % of control
T/C (endpoint: mean survival time, dose: 100.0 mg/kg/injection, schedule: Q01DX001 (oral), vehicle: saline): 95 % of control
T/C (endpoint: mean survival time, dose: 112.0 mg/kg/injection, schedule: Q01DX001 (ip), vehicle: carboxymethylcellulose (CMC)): 164 % of control
T/C (endpoint: mean survival time, dose: 112.0 mg/kg/injection, schedule: Q## X001 (ip), vehicle: carboxymethylcellulose (CMC)): 152 % of control
T/C (endpoint: mean survival time, dose: 112.0 mg/kg/injection, schedule: Q## X008 (ip), vehicle: carboxymethylcellulose (CMC)): 121 % of control
T/C (endpoint: mean survival time, dose: 112.0 mg/kg/injection, schedule: Q## X015 (ip), vehicle: carboxymethylcellulose (CMC)): 119 % of control
T/C (endpoint: mean survival time, dose: 200.0 mg/kg/injection, schedule: Q01DX001 (ip), vehicle: Klucel (hydroxypropylcellulose) (HPC)): 110 % of control
T/C (endpoint: mean survival time, dose: 200.0 mg/kg/injection, schedule: Q01DX001 (ip), vehicle: carboxymethylcellulose (CMC)): 104 % of control
T/C (endpoint: mean survival time, dose: 200.0 mg/kg/injection, schedule: Q01DX001 (oral), vehicle: carboxymethylcellulose (CMC)): 159 % of control
T/C (endpoint: mean survival time, dose: 400.0 mg/kg/injection, schedule: Q01DX001 (ip), vehicle: carboxymethylcellulose (CMC)): 93 % of control
T/C (endpoint: median survival time, dose: 12.5 mg/kg/injection, schedule: Q01DX001 (ip), vehicle: saline with Tween-80): 99 % of control and 100 % of control
T/C (endpoint: median survival time, dose: 25.0 mg/kg/injection, schedule: Q01DX001 (ip), vehicle: saline with Tween-80): 100 % of control and 101 % of control
T/C (endpoint: median survival time, dose: 25.0 mg/kg/injection, schedule: Q01DX001 (oral), vehicle: Klucel (hydroxypropylcellulose) (HPC)): 158 % of control
T/C (endpoint: median survival time, dose: 50.0 mg/kg/injection, schedule: Q01DX001 (ip), vehicle: saline with Tween-80): 112 % of control and 113 % of control
T/C (endpoint: median survival time, dose: 200.0 mg/kg/injection, schedule: Q01DX001 (ip), vehicle: saline with Tween-80): 112 % of control and 113 % of control
